Measurements from patent US20260215431A1, “AN HERBICIDAL COMBINATION, COMPOSITION AND METHOD OF CONTROLLING WEEDS USING THE SAME” (priority 2023, published 2026).

Tests used:
[1] = test system: Borreria verticillata; assay: Greenhouse post-emergence herbicidal efficacy on Borreria verticillata; assay type: in vivo; conditions: 14 DAA
Method: (§1) The expected efficacy of a combination of L-glufosinate ammonium and the other herbicides was calculated using the well-established Colby method. Any difference between the observed and “expected” efficacy could be attributed to synergy between the two compounds.
(§2) In the Colby method, the expected (or predicted) response of a combination of herbicides is calculated by taking the product of the observed response for each individual component of the combination when applied alone, divided by 100, and subtracting this value from the sum of the observed response for each component when applied alone. An unexpected enhancement in efficacy of the combination is then determined by comparing the observed response of the combination to the expected (or predicted) response as calculated from the observed response of each individual component alone. If the observed response of the combination is greater than the expected (or predicted) response, or stated conversely, if the difference between the observed and expected response is greater than zero, then the combination is said to be synergistic or unexpectedly effective (Colby, S. R., Weeds, 1967(15), p. 20-22). The Colby method requires only a single dose of each herbicide applied alone and the mixture of both doses. The formula used to calculate the expected efficacy (EE) which was compared with the observed efficacy (OE) to determine the efficacy of the present disclosure is explained hereinbelow:
(§3) The expected efficacy for a combination of two active ingredients is as follows:
(§4) The expected efficacy for a combination of three active ingredients is as follows:
(§5) [formula] • wherein, • A=Observed efficacy of active ingredient A at the same concentration as used in the mixture. • B=Observed efficacy of the active ingredient B at the same concentration as used in the mixture. • C=Observed efficacy of the active ingredient C at the same concentration as used in the mixture.
(§6) Greenhouse trials were conducted to evaluate the efficacy of the combination of L-glufosinate ammonium and metribuzin, L-glufosinate ammonium and metribuzin+sulfentrazone and L-glufosinate ammonium and metribuzin+oxyfluorfen—on weeds Borreria verticillate, Euphorbia heterophylla.
(§7) The soil used was sandy clay loam—sand: 68.0%; silt: 8.0%; clay: 24.0%.
(§8) All treatments were in 4 replications per treatment with a spray volume of 150 L/ha.
The percentage efficacy was calculated at 14 days after application (DAA). The target weed was Borreria verticillata, and the concentration of the herbicide and the results are recorded in Table 1.
The percentage efficacy was calculated at 14 DAA. The target weed was Borreria verticillata, and the concentration of the herbicides and the results are recorded in the Table 3.
The percentage efficacy was calculated at 14 DAA. The target weed was Borreria verticillata, and the concentration of the herbicides and the results are recorded in Table 5.

[2] = test system: Euphorbia heterophylla; assay: Greenhouse post-emergence herbicidal efficacy on Euphorbia heterophylla; assay type: in vivo
Method: as §1, §2, §3, §4, §5, §6, §7, §8
The percentage efficacy was calculated at 7, 14 and 21 DAA. The target weed was Euphorbia heterophylla, and the concentration of the herbicide and the results are recorded in Table 2.
The percentage efficacy was calculated at 14, 21 and 28 DAA. The target weed was Euphorbia heterophylla, and the concentration of the herbicides and the results are recorded in Table 4.
The percentage efficacy was calculated at 14 and 21 DAA. The target weed was Euphorbia heterophylla, and the concentration of the herbicides and the results are recorded in Table 6.

[3] = test system: Viola arvensis, Bromus spp., Lolium spp., Agropyron repens and Urtica urens; conditions: reported by Hoechst et al., 1991; cited from earlier work

CSc1nnc(C(C)(C)C)c(=O)n1N [Metribuzin]
Observed efficacy (%) of metribuzin (252 g a.i./ha) ([1]; Table 1): 30%
Observed efficacy (%) of metribuzin (252 g a.i./ha) ([1]; Table 3): 30%
Observed efficacy (%) of metribuzin (252 g a.i./ha) ([1]; Table 5): 55%
Observed efficacy (%) of metribuzin (252 g a.i./ha) ([2]; Table 2, 7 DAA): 35%
Observed efficacy (%) of metribuzin (252 g a.i./ha) ([2]; Table 2, 14 DAA): 25%
Observed efficacy (%) of metribuzin (252 g a.i./ha) ([2]; Table 2, 21 DAA): 15%
Observed efficacy (%) of metribuzin (252 g a.i./ha) ([2]; Table 4, 14 DAA): 30%
Observed efficacy (%) of metribuzin (252 g a.i./ha) ([2]; Table 4, 21 DAA): 20%
Observed efficacy (%) of metribuzin (252 g a.i./ha) ([2]; Table 4, 28 DAA): 10%
Observed efficacy (%) of metribuzin (252 g a.i./ha) ([2]; Table 6, 14 DAA): 85%
Observed efficacy (%) of metribuzin (252 g a.i./ha) ([2]; Table 6, 21 DAA): 85%

Cc1nn(-c2cc(NS(C)(=O)=O)c(Cl)cc2Cl)c(=O)n1C(F)F [Sulfentrazone]
Observed efficacy (%) of sulfentrazone (300 g a.i./ha) ([1]; Table 5, 300 g a.i./ha): 30%
Observed efficacy (%) of sulfentrazone (300 g a.i./ha) ([2]; Table 6, 14 DAA): 25%
Observed efficacy (%) of sulfentrazone (300 g a.i./ha) ([2]; Table 6, 21 DAA): 15%

CCOc1cc(Oc2ccc(C(F)(F)F)cc2Cl)ccc1[N+](=O)[O-] [Oxyfluorfen]
Observed efficacy (%) of oxyfluorfen (430 g a.i./ha) ([1]; Table 3, 430 g a.i./ha): 70%
Observed efficacy (%) of oxyfluorfen (430 g a.i./ha) ([2]; Table 4, 14 DAA): 65%
Observed efficacy (%) of oxyfluorfen (430 g a.i./ha) ([2]; Table 4, 21 DAA): 50%
Observed efficacy (%) of oxyfluorfen (430 g a.i./ha) ([2]; Table 4, 28 DAA): 40%

CP(=O)(O)CC[C@H](N)C(=O)O.N [L-glufosinate ammonium, ammonium (2S)-2-amino-4-(methylphosphinato)butyric acid]
Observed efficacy (%) of L-glufosinate ammonium (150 g a.i./ha) ([1]; Table 1): 80%
Observed efficacy (%) of L-glufosinate ammonium (150 g a.i./ha) ([1]; Table 3): 80%
Observed efficacy (%) of L-glufosinate ammonium (150 g a.i./ha) ([1]; Table 5): 80%
Observed efficacy (%) of L-glufosinate ammonium (150 g a.i./ha) ([2]; Table 2, 7 DAA): 95%
Observed efficacy (%) of L-glufosinate ammonium (150 g a.i./ha) ([2]; Table 2, 14 DAA): 85%
Observed efficacy (%) of L-glufosinate ammonium (150 g a.i./ha) ([2]; Table 2, 21 DAA): 70%
Observed efficacy (%) of L-glufosinate ammonium (150 g a.i./ha) ([2]; Table 4, 14 DAA): 88%
Observed efficacy (%) of L-glufosinate ammonium (150 g a.i./ha) ([2]; Table 4, 21 DAA): 85%
Observed efficacy (%) of L-glufosinate ammonium (150 g a.i./ha) ([2]; Table 4, 28 DAA): 85%
Observed efficacy (%) of L-glufosinate ammonium (150 g a.i./ha) ([2]; Table 6, 14 DAA): 85%
Observed efficacy (%) of L-glufosinate ammonium (150 g a.i./ha) ([2]; Table 6, 21 DAA): 70%

CP(=O)(O)CCC(N)C(=O)O (racemic) [glufosinate, DL-homoalanin-4-yl(methyl)phosphinic acid]
Control of weed species by glufosinate [3]: either not combated, or only weakly combated
